Test results from US20090029992A1, “SUBSTITUTED PYRAZOLE COMPOUNDS” (priority 2007, published 2009).

Tests used:
[1] = molecular target: T1, recombinant Aurora A (Homo sapiens, UniProt O14965); assay: Aurora A (Aurora 2) inhibition assay, Z'-Lyte kinase assay; format: biochemical; conditions: ATP 10 μM, 1 h
T1 construct: purchased Upstate, Lake Placid, N.Y
T1 sequence (O14965 1-403): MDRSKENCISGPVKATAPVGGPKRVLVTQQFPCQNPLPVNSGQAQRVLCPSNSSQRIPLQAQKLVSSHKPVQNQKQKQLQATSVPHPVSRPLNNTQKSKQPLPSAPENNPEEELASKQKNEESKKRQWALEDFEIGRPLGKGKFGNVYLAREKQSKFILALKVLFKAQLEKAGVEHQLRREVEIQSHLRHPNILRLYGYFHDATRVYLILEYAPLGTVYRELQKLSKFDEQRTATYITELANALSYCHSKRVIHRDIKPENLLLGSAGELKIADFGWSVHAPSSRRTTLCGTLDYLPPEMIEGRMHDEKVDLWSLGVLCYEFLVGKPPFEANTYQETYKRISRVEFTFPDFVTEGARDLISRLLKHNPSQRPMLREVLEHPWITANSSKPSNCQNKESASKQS
Procedure: Compounds were tested for their potency against recombinant Aurora A (Upstate, Lake Placid, N.Y.) using the PanVera Z′-Lyte kinase assay kit—Ser/Thr 1 peptide (Invitrogen, Carlsbad, Calif.). Assays were carried out in kinase assay buffer (50 mM HEPES, pH 7.5, 10 mM MgCl2, 5 mM EGTA, 0.05% Brij-35, 2 mM DTT). Test compounds were initially dissolved in DMSO at 100× the highest tested concentration, then serially diluted to 4× test concentrations in kinase assay buffer. Next, Aurora A (final concentration 200-500 ng/mL), Z′-Lyte Ser/Thr 1 peptide (final concentration 2 μM) and ATP (final concentration 10 μM) were added according to the manufacturer's instructions. Assays were carried out in half-area 96-well white polystyrene assay plates (Corning, Corning, N.Y.) in a final volume of 20 μl. The reaction was allowed to proceed for 1 h at room temperature in the dark, at which point the development reagent and stop reagent were added according to the manufacturer's instructions. Coumarin (Ex. 400 nm, Em. 465 nm) and fluorescein (Ex. 400 nm, Em. 565 nm) fluorescence values were measured on a SpectraFluor Plus plate reader (Tecan, Durham, N.C.). The emission ratio (coumarin/fluorescein) was determined and used to calculate the percent phosphorylation for each well. Wells containing substrate but no kinase and wells containing a phosphopeptide control were used to set 0% and 100% phosphorylation values, respectively. Typically 20-40% of the substrate was phosphorylated in wells without inhibitor. Dose-response curves of relative Aurora A activity vs. inhibitor concentration were plotted with Grafit (Erithacus Software, Horley, Surrey, UK).

[2] = molecular target: T2, N-terminal His-tagged human Src (Homo sapiens, UniProt P12931); assay: Src kinase inhibition assay (33P-ATP filter assay); format: biochemical
T2 construct: His (N); purchased Upstate USA Inc, 706 Forest Street, Charlottesville, Va
T2 sequence (P12931 whole entry): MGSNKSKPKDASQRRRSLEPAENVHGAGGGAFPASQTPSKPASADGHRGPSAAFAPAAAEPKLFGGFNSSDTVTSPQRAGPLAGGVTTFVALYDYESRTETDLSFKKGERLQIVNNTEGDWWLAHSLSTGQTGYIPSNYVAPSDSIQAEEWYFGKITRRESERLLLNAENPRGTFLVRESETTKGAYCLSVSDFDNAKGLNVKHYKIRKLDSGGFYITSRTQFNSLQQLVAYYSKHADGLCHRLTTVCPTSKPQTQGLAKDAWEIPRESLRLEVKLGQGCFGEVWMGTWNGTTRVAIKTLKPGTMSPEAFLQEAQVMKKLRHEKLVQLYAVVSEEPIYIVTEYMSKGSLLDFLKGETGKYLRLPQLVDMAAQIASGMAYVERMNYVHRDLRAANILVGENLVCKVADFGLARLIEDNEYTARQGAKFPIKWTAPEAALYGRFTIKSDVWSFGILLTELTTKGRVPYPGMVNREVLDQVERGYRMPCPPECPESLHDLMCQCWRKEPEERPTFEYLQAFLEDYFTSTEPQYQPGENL
Procedure: (§1) Compounds were assayed for Src kinase inhibitory activity using N-terminal His-tagged human Src (Upstate USA Inc, 706 Forest Street, Charlottesville, Va.). Serial dilutions of compound were assayed in a final reaction volume of 25 μL by incubating a solution of the above Src kinase (5-10 mU), 8 mM MOPS (3-(N-morpholino) propanesulfonic acid) pH 7.0, 0.2 mM EDTA (ethylenediamine tetracetic acid), 250 μM amino acid sequence KVEKIGEGTYGVVYK (Upstate USA Inc, 706 Forest Street, Charlottesville, Va.), and 10 mM magnesium acetate and [γ-^33P-ATP] (specific activity of about 500 cpm/μmol, concentration as required). The reaction was initiated by the addition of the magnesium acetate and [γ-^33P-ATP] mixture. After incubation for 40 minutes at room temperature, the reaction was stopped by the addition of 5 μL of a 3% phosphoric acid solution. A 10 μL aliquote of the reaction was then spotted onto a P30 filtermat (PerkinElmer, Wellesley, Mass.) and washed three times for five minutes in 75 mM phosphoric acid and once in methanol prior to drying and scintillation counting. Inhibition of Src activity was determined by comparison to assays that contained no inhibitor.

[3] = tested on: HCT116 cells; assay: Whole cell cytotoxicity assay, Sulforhodamine B; format: cell-based; conditions: Homo sapiens, HCT-116; HCT116, 96 hours incubation, SRB; read-out: IC50 values in this assay (HCT116 cell growth)
Procedure: Human tumor-derived cell lines, HCT116 or MCF7 (ATCC) were plated in a 96 well plate in DMEM containing 10% fetal bovine serum and 2 mM L-glutamine at a density of 500 HCT116 cells or 1,000 MCF7 cells per well and incubated at 37° C., 5% CO2, for 24 hours prior to the addition of experimental compounds. Compounds were added using the dilution series indicated to duplicate plates and the cells were incubated in media plus compound for 96 hours. An additional plate was fixed in 10% TCA at the time of the addition of compound to provide a measurement of the cell population at time zero, the time of drug addition. Following the 96 hour incubation, cells were fixed in situ by gently aspirating off the culture media and then adding 50 ul of ice cold 10% TCA per well and incubation at 4° C. for 60 minutes. The plates were washed with tap water five times and allowed to air dry for 5 minute. 50 ul of a 0.4% (w/v) Sulforhodamine B solution in 1% (v/v) acetic acid was added per well and the cells were incubated for 30 minutes at room temperature. Following staining, plates were washed four times with 1% acetic acid to remove any unbound dye and then allowed to air dry for 5 minutes. The stain was solubilized with 100 ul of 10 mM Tris pH 10.5 per well and placed on an orbital rotator for 5 minutes. The absorbance was read at 570 nm. Percentage growth was calculated using the absorbance readings from the time zero plate (Tz) and the dilution series plate […] which included a column of cells grown in media without compound as a control (C) using the formulas:
[(Ti−Tz)/(C−Tz)]×100 for concentrations for which Ti>/=Tz
[(Ti−Tz)/Tz]×100 for concentrations for which Ti<Tz.
Three dose response parameters were calculated for each experimental agent. Growth inhibition of 50% (GI50) was calculated from [(Ti−Tz)/(C−Tz)]×100=50, which was the drug concentration resulting in a 50% reduction in the net protein increase (as measured by SRB staining) in control cells during the drug incubation. The drug concentration resulting in total growth inhibition (TGI) was calculated from Ti=Tz. The LC50 (concentration of drug resulting in a 50% reduction in the measured protein at the end of the drug treatment as compared to that at the beginning) indicating a net loss of cells following treatment ws calculated from [(Ti−Tz)/Tz]×100=−50. Values are calculated for each of these three parameters if the level of activity was reached; however, if the effect was not reached or was exceeded, the value for that parameter is expressed as greater or less than the maximum or minimum concentration tested.

[4] = molecular target: T3, N-terminal His6-tagged recombinant human KDR, residues 790-end (Homo sapiens, UniProt P35968); assay: KDR kinase inhibition assay (33P-ATP filter assay); format: biochemical
T3 construct: recombinant human KDR, residues 790-end; His6 (N); purchased Upstate USA Inc, 706 Forest Street, Charlottesville, Va
T3 sequence (P35968 790-1356 limits assumed): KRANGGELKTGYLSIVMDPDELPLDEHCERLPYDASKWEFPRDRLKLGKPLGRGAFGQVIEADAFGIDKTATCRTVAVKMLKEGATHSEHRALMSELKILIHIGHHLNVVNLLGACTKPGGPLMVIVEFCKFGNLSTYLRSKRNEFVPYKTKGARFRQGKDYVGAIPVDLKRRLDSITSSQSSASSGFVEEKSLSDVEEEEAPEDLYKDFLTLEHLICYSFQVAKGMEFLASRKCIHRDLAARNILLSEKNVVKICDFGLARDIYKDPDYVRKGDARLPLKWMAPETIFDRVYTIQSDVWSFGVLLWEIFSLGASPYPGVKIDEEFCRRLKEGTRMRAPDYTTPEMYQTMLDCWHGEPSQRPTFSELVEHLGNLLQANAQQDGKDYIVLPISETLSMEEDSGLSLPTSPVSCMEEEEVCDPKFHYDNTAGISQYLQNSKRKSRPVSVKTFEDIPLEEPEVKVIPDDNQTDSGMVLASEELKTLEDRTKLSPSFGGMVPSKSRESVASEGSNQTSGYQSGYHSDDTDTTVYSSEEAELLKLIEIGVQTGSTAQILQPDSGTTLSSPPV
Procedure: as §1, with “for KDR” for “for Src”, “N-terminal His6-tagged recombinant” for “N-terminal His-tagged”, “human KDR, residues 790-end” for “human Src”, “above KDR” for “above Src”, “acid), 0.33 mg/mL myelin basic protein” for “acid), 250 μM amino acid sequence KVEKIGEGTYGVVYK”, “of KDR” for “of Src”

[5] = molecular target: T4, N-terminal GST-tagged recombinant human Flt3, residues 564-end (Homo sapiens, UniProt P36888); assay: Flt3 kinase inhibition assay (33P-ATP filter assay); format: biochemical; conditions: 40 minutes at room temperature
T4 construct: recombinant human Flt3, residues 564-end; GST (N); purchased Upstate USA Inc, 706 Forest Street, Charlottesville, Va
T4 sequence (P36888 564-993 limits assumed): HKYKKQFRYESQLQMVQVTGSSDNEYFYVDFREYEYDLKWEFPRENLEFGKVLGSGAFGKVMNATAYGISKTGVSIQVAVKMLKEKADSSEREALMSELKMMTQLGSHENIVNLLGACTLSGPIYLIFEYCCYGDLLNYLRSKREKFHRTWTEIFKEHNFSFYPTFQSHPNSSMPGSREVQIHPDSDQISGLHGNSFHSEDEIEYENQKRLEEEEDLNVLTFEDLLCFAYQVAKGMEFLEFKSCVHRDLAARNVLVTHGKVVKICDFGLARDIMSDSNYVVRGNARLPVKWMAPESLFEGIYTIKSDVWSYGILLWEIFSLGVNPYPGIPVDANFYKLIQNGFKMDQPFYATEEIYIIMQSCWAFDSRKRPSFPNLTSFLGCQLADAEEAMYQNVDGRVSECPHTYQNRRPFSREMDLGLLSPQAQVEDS
Procedure: Compounds were assayed for Flt3 kinase inhibitory activity using N-terminal GST-tagged recombinant human Flt3, residues 564-end (Upstate USA Inc, 706 Forest Street, Charlottesville, Va.). Serial dilutions of compound were assayed in a final reaction volume of 25 μL by incubating a solution of the above Flt3 kinase (5-10 mU), 8 mM MOPS (3-(N-morpholino) propanesulfonic acid) pH 7.0, 0.2 mM EDTA (ethylenediamine tetracetic acid), 50 μM amino acid sequence EAIYAAPFAKKK (Upstate USA Inc, 706 Forest Street, Charlottesville, Va.), and 10 mM magnesium acetate and [γ-^33P-ATP] (specific activity of about 500 cpm/μmol, concentration as required). The reaction was initiated by the addition of the magnesium acetate and [γ-^33P-ATP] mixture. After incubation for 40 minutes at room temperature, the reaction was stopped by the addition of 5 μL of a 3% phosphoric acid solution. A 10 μL aliquote of the reaction was then spotted onto a P30 filtermat (PerkinElmer, Wellesley, Mass.) and washed three times for five minutes in 75 mM phosphoric acid and once in methanol prior to drying and scintillation counting. Inhibition of Flt3 activity was determined by comparison to assays that contained no inhibitor.

[6] = group with IC50 greater than 100 nM

Row | Compound | IC50 [1] [µM] | IC50 [2, 6] [µM] | IC50 [3] [µM] | IC50 [4, 6] [µM] | IC50 [1, 6] [µM] | IC50 ([2]; 40 minutes at room temperature) [µM] | IC50 [5] [µM] | IC50 ([4]; 40 minutes at room temperature) [µM]
1 | Cc1cc(Nc2cc(NC3CCOCC3)nc(-c3cccc(Cl)c3)n2)n[nH]1 [Compound 23, 2-(3-chlorophenyl)-N^4-(5-methyl-1H-pyrazol-3-yl)-N^6-(tetrahydro-2H-pyran-4-yl)pyrimidine-4,6-diamine] | ≤ 0.1 | ≤ 1 | 1 to 10 | ≤ 1 | – | – | – | –
2 | Cc1cc(Nc2cc(NC3CCOCC3)nc(-c3ccccc3Cl)n2)n[nH]1 [Compound 24, 2-(2-chlorophenyl)-N^4-(5-methyl-1H-pyrazol-3-yl)-N^6-(tetrahydro-2H-pyran-4-yl)pyrimidine-4,6-diamine] | – | ≤ 1 | – | ≤ 1 | ≤ 1 | – | – | –
3 | COc1ccc(-c2nc(Nc3cc(C)[nH]n3)cc(NC3CCOCC3)n2)cc1 [Compound 28, 2-(4-methoxyphenyl)-N^4-(5-methyl-1H-pyrazol-3-yl)-N^6-(tetrahydro-2H-pyran-4-yl)pyrimidine-4,6-diamine] | ≤ 0.1 | – | 1 to 10 | ≤ 1 | – | ≤ 0.1 | – | –
4 | Cc1cc(Nc2cc(NC3CCOCC3)nc(-c3cccc4c3OCCO4)n2)n[nH]1 [Compound 129] | – | ≤ 1 | – | ≤ 1 | ≤ 1 | – | ≤ 0.1 | –
5 | Cc1cc(Nc2cc(N3CCN(C)CC3)nc(-c3cccc(O)c3)n2)n[nH]1 [Example 161, 3-(4-(5-methyl-1H-pyrazol-3-ylamino)-6-(4-methylpiperazin-1-yl)pyrimidin-2-yl)phenol] | ≤ 0.1 | – | – | – | – | ≤ 0.1 | ≤ 0.1 | ≤ 0.1
6 | CC(=O)Nc1cccc(-c2nc(Nc3cc(C)[nH]n3)cc(N3CCN(C)CC3)n2)c1 [Example 167, N-(3-(4-(5-methyl-1H-pyrazol-3-ylamino)-6-(4-methylpiperazin-1-yl)pyrimidin-2-yl)phenyl)acetamide] | ≤ 0.1 | – | – | – | – | ≤ 0.1 | ≤ 0.1 | ≤ 0.1
7 | Cc1cc(Nc2cc(NC3CCOCC3)nc(-c3cccc(C)c3C)n2)n[nH]1 [Example 180, 2-(2,3-dimethylphenyl)-N^4-(5-methyl-1H-pyrazol-3-yl)-N^6-(tetrahydro-2H-pyran-4-yl)pyrimidine-4,6-diamine] | – | ≤ 1 | – | – | ≤ 1 | – | ≤ 0.1 | ≤ 0.1
8 | COCCN(C)c1cc(Nc2cc(C)[nH]n2)nc(-c2cccc(C)c2C)n1 [Example 181, 2-(2,3-dimethylphenyl)-N^4-(2-methoxyethyl)-N^4-methyl-N^6-(5-methyl-1H-pyrazol-3-yl)pyrimidine-4,6-diamine] | – | ≤ 1 | – | ≤ 1 | ≤ 1 | – | ≤ 0.1 | –
9 | Cc1ccc(C)c(-c2nc(Nc3cc(C)[nH]n3)cc(NC3CCOCC3)n2)c1 [Example 206, 2-(2,5-dimethylphenyl)-N^4-(5-methyl-1H-pyrazol-3-yl)-N^6-(tetrahydro-2H-pyran-4-yl)pyrimidine-4,6-diamine] | – | ≤ 1 | – | ≤ 1 | ≤ 1 | – | ≤ 0.1 | –
